Columns and labels:
[1] = test system: ZR-75-1-R breast cancer tumor cells (Tamoxifen resistant); test: ZR-75-1-R xenograft tumor model; type: in vivo; settings: oral, daily, 28 days, ZR-75-1-R xenograft in BALB/c nude mice
Protocol: (§1) ZR-75-1-R breast cancer tumor cells (Tamoxifen resistant) were maintained in vitro as monolayer culture in RPMI1640 Medium supplemented with 10% fetal bovine serum and 10 μM tamoxifen at 37° C. in an atmosphere of 5% CO2 in air. The cells growing in an exponential growth phase were harvested and counted for tumor inoculation. BALB/c nude mice were implanted subcutaneously in the right flank with ZR-75-1-R tumor cells (1×10^7) in 100 μl PBS:Matrigel (1:1). When tumors reached approximately 191 mm^3, animals were randomly distributed into treatment groups of 10 animals each and dosed orally, daily with vehicle, freebase Compound (A) at 30 mg/kg, Compound 1 at 80 mg/kg, or compound A at 30 mg/kg in combination with Compound 1 at 80 mg/kg for 28 days. In addition, estradiol benzoate injections were delivered by s.c. (40 μg/20 μL, twice weekly). Tumor volumes were evaluated twice per week to calculate tumor volume over time, and mice were weighed twice per week as a surrogate for signs of toxicity. Tumor growth inhibition (TGI) was calculated using the following equation TGI=(1−(Td−T0)/(Cd−C0))×100%. Td and Cd are the mean tumor volumes of the treated and control animals, and TO and CO are the mean tumor volumes of the treated and control animals at the start of the experiment.

[2] = test system: MCF-7 breast cancer tumor cells; test: MCF-7 xenograft tumor model; type: in vivo; settings: Compound 1 80 mg/kg, oral, daily; MCF-7 xenograft in BALB/c nude mice
Protocol: as §1, with “In addition, estradiol benzoate injections were delivered by s.c. (40 μg/20 μL, twice weekly).” left out, “Tumor growth inhibition (TGI) was calculated using the following equation TGI=(1−(Td−T0)/(Cd−C0))×100%. Td and Cd are the mean tumor volumes of the treated and control animals, and TO and CO are the mean tumor volumes of the treated and control animals at the start of the experiment.” left out
Example 2: MCF-7 breast cancer tumor cells were cultured in vitro in DMEM Medium supplemented with 15% fetal bovine serum at 37° C. in an atmosphere of 5% CO2 in air. The cells growing in an exponential growth phase were harvested and counted for tumor inoculation. […] Tumor volumes were evaluated twice per week to calculate tumor volume over time, and mice were weighed twice per week as a surrogate for signs of toxicity. TGI values were calculated using the equation provide in Example 1.

**Q.** `C[C@@H]1Cc2c([nH]c3ccccc23)[C@@H](c2c(F)cc(/C=C/C(=O)O)cc2F)N1C12CC(C1)C2` [Compound (A)] was tested. Which “Tumor growth inhibition (TGI)” value ([1]; freebase Compound (A) 30 mg/kg) did it give?
**A.** 43.0%

**Q.** With `C=CCn1c(=O)c2cnc(Nc3ccc(N4CCN(C)CC4)cc3)nc2n1-c1ccc2c(n1)[C@@](O)(CC)CC2` [Compound 1] as the molecule, how does the “Tumor growth inhibition (TGI)” value ([1]; Compound 1 80 mg/kg) read?
**A.** 69.9%

**Q.** And the “Tumor growth inhibition (TGI)” value [2]?
**A.** 132.6%
